Data published in patent EP4768489A1, “CYCLOBUTYL-CONTAINING COMPOUNDS” (Chia Tai Tianqing Pharmaceutical Group Co., Ltd., priority 2023, dated 2025).
Residue numbers refer to the chain shown, from its start.

Assays:
AR in VCaP cells = biological target: T1, AR in VCaP cells (Homo sapiens, UniProt P10275); experiment: Assay on degradation activity for AR in VCaP cells (HTRF human androgen receptor detection kit); format: cell-based; details: 24 h; for DC50: AR degradation; for Dmax: maximum degradation rate
T1 construct: Assay on degradation activity for AR in VCaP cells; endogenous in cells; host or cells: VCaP cells
T1 sequence (P10275 1-920): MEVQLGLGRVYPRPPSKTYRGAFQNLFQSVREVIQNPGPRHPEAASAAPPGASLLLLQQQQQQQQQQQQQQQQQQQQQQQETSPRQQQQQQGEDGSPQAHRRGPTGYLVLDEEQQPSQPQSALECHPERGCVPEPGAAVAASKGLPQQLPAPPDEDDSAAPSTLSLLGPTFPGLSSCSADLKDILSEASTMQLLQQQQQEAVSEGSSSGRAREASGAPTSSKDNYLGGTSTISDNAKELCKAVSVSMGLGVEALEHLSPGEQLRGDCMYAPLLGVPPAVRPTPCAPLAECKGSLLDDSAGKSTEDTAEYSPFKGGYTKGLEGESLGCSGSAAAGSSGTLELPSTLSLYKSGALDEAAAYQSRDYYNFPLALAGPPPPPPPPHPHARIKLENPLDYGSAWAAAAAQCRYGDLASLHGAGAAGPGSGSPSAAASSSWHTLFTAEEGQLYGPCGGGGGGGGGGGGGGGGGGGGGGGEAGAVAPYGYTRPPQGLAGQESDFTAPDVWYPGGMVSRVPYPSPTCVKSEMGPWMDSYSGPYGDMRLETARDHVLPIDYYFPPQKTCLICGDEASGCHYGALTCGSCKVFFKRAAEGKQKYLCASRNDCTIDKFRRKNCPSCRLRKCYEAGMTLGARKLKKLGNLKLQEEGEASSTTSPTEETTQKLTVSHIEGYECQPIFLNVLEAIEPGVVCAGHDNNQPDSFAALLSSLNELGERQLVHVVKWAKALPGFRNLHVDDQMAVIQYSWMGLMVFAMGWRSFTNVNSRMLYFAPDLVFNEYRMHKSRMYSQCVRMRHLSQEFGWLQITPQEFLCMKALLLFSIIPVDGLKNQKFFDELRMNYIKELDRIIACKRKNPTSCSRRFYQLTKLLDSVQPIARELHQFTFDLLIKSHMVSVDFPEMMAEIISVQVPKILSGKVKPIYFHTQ
Method: (§1) The detection was carried out using the HTRF HUMAN ANDROGEN RECEPTOR DETECTION KIT (cisbio, 64ANDRPEG), 4× Supplemented Lysis buffer was prepared using the Blocking reagent stock solution (100×) and Lysis buffer stock solution (4×), and 1× Supplemented Lysis buffer was prepared using the 4× Supplemented Lysis buffer and ddH2O. Premixed antibody solutions were prepared using Detection buffer, Androgen Receptor Eu Cryptate antibody, and Androgen Receptor d2 antibody.
The cells were cultured overnight in a cell incubator. […] After the cells were oscillated for 40 min at room temperature, 16 µL of the cell lysis buffer was added to a 384-well plate, the Premixed antibody solutions were added at 4 µL/well, and the mixture was left to stand at 25 °C for 2 h. […] Table 1. Degradation activity of compounds for AR in VCaP cells

[1] = biological target: T2, AR in MDA-PCA-2B (L702H\T878A) cells (Homo sapiens, UniProt P10275, L702H/T878A); experiment: Assay on degradation activity for AR in MDA-PCA-2B (L702H\T878A) cells (HTRF); format: cell-based; details: 24 h; for DC50: AR degradation; for Dmax: maximum degradation rate
T2 construct: Assay on degradation activity for AR in MDA-PCA-2B (L702H\T878A) cells; endogenous in cells; host or cells: MDA-PCA-2B cells
T2 sequence (P10275 1-920 L702H/T878A): T1 sequence (P10275 1-920) with L702H, T878A
Method: as §1
The cells were cultured overnight in a cell incubator. […] After the cells were oscillated for 40 min at room temperature, 16 µL of the cell lysis buffer was added to a 384-well plate, the Premixed antibody solutions were added at 4 µL/well, and the mixture was left to stand at 25 °C for 2 h. […]

VCaP cells = experiment: Assay on inhibitory activity for VCaP cell proliferation (CCK-8); format: cell-based; details: Homo sapiens, 168 h
[2] = In vitro liver microsome stability, human; format: in vitro ADME; details: human liver microsomes 0.5 mg/mL, 37 °C, NADPH
Method: Liver microsome incubation samples were prepared by mixing a PBS buffer (pH 7.4), a liver microsome solution (0.5 mg/mL), a test compound, and an NADPH + MgCl2 solution, followed by incubation at 37 °C and 300 rpm for 1 h. Zero-hour samples were prepared by mixing a PBS buffer (pH 7.4), a liver microsome solution (0.5 mg/mL), and a test compound. […]

Mouse pharmacokinetics = details: Mouse i.g. (0-48 h), 10 mpk vs i.v. 1 mpk
Method: ICR mice weighing 18-22 g were randomized into groups of 9 after 3-5 days of acclimatization. The mice in the intragastric administration group were intragastrically given the test compound solution at a dose of 10 mg/kg (20 mg/kg or 30 mg/kg), and the mice in the intravenous injection administration group were intravenously injected with the test compound solution at a dose of 1 mg/kg.
Blood was collected from the orbit to prepare plasma samples to be tested.
30 µL of each of the plasma samples to be tested and a standard curve sample were taken, and an acetonitrile solution containing an internal standard was added. Supernatants were obtained by protein precipitation, diluted with a 1:1 (v:v) mixed solution of acetonitrile and water, and then assayed by LC/MS/MS. Data were fitted using a non-compartmental model.

Structure (SMILES) | DC50 (AR in VCaP cells) | Dmax (AR in VCaP cells) | DC50 [1] | Dmax [1] | IC50 (VCaP cells) | HLM (human) Remaining amount at 60 min % [2] | F (Mouse pharmacokinetics)
COc1cc(O[C@H]2C(C)(C)[C@H](NC(=O)c3cnc(N4CCC(CN5CCc6c(ccc7c(C8CCC(=O)NC8=O)noc67)C5)CC4)nc3)C2(C)C)ccc1C#N (stereo partly shown) [Compound 4] | < 5 nM | > 75% | < 500 nM | > 70% | < 2000 nM | >70% | 55.36%
COc1cc(O[C@H]2C(C)(C)[C@H](NC(=O)c3ccc(N4CCC(CN5CCc6c(ccc7c(C8CCC(=O)NC8=O)noc67)C5)CC4)nn3)C2(C)C)ccc1C#N (stereo partly shown) [Compound 6] | < 5 nM | > 75% | < 500 nM | > 70% |  |  | 
COc1cc(O[C@H]2C(C)(C)[C@H](NC(=O)c3ccc(N4CCC(CN5CCc6c(ccc7c(C8CCC(=O)NC8=O)noc67)C5)CC4)nc3)C2(C)C)ccc1C#N (stereo partly shown) [Compound 3] | < 5 nM | > 75% | < 500 nM | > 70% | < 2000 nM | >70% | 
COc1cc(O[C@H]2C(C)(C)[C@H](NC(=O)c3cnc(N4CCC(CN5CCc6c(ccc7c(C8CCC(=O)NC8=O)noc67)C5)CC4)cn3)C2(C)C)ccc1C#N (stereo partly shown) [Compound 5] | < 5 nM | > 75% | < 500 nM | > 70% | < 2000 nM | >70% | 50.78%
COc1cc(O[C@H]2C(C)(C)[C@H](NC(=O)c3ccc(N4CCC(CN5CCc6c(ccc7c(C8CCC(=O)NC8=O)noc67)C5)CC4)cc3)C2(C)C)ccc1C#N (stereo partly shown) [Compound 1] | < 5 nM | > 75% | < 500 nM | > 70% | < 2000 nM | >70% | 31.99%
